Converted amounts (≈) assume the structure as drawn.

Data set [1] can be described thus: Microsomal stability (rat). In kind it is in vitro ADME. To be noted: rat microsomes, Table 1, read-out: Microsomal Stability (rat) T1/2.
The next data set in a line: Solubility pH 7.4. In kind it is physicochemical. To be noted: aqueous buffer, Table 1.
The subject of data set [2] is Asexual parasites of P. falciparum strain 3D7. The experiment in a line: In vitro drug activity on asexual parasites (SYBR Green assay). In kind it is cell-based. To be noted: Plasmodium falciparum; Table 1; P. falciparum 3D7 asexual stage, 72 h; read-out: Asexual EC50. The gist of the method:
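Growth was measured by SYBR Green I fluorescence (excitation 490 nm, emission 520 nm) after freeze-thaw lysis and 30 min staining at room temperature. Parasites (0.5% parasitemia, 2% hematocrit) had been incubated 72 h with compound, DMSO below 0.5%. Conditions were run in duplicate with no-drug and RBC-alone controls.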

The nature of the next data set: PAMPA permeability. In kind it is in vitro ADME. To be noted: Table 1.

Turning to `COC(=O)/N=c1\n(C)c2cnc3ccc(-c4ccc(C)cc4)cc3c2n1-c1cc(C#N)c(N2CCN(C)CC2)cc1C` [Compound 147, Methyl (E)-(1-(5-cyano-2-methyl-4-(4-methylpiperazin-1-yl)phenyl)-3-methyl-8-(p-tolyl)-1,3-dihydro-2H-imidazo[4,5-c]quinolin-2-ylidene)carbamate], in data set [1], the half-life was 24.4 min. For the same compound, the solubility in the data set “Solubility pH 7.4” was determined as 4.3 µg/mL (≈ 7.68 µM). In addition, the EC50 in data set [2] worked out at 0.0284 µM. Further, the Papp in the data set “PAMPA permeability” turned out to be 656 ×10⁻⁶ cm/s.
Take `Cc1ccc(C#N)cc1-n1c(=N)n(C)c2cnc3ccc(C#Cc4ccc(Cl)cc4)cc3c21` [Compound 155, 3-(8-((4-chlorophenyl)ethynyl)-2-imino-3-methyl-2,3-dihydro-1H-imidazo[4,5-c]quinolin-1-yl)-4-methylbenzonitrile]: the half-life in data set [1] is above 30 min. For the same compound, the solubility in the data set “Solubility pH 7.4” was below 1 µg/mL. For the same compound, the EC50 in data set [2] is 8.98 µM. In addition, the Papp in the data set “PAMPA permeability” was 916 ×10⁻⁶ cm/s.

The values above are taken from patent US20210188843A1, “QUINOLINE COMPOUNDS AND THEIR PREPARATION AND USE AS ANTIMALARIAL AGENTS” (The United States of America,as represented by the …, priority 2018, published 2021).
